IC50 data for 29 compounds are collected here from patent US10005768B2, “Carboxamide derivatives and use thereof” (Purdue Pharma L.P., priority 2013, dated 2018).

Chain of human Nav1.7 (Q15858 other isoform, or with tags, fused parts or gaps): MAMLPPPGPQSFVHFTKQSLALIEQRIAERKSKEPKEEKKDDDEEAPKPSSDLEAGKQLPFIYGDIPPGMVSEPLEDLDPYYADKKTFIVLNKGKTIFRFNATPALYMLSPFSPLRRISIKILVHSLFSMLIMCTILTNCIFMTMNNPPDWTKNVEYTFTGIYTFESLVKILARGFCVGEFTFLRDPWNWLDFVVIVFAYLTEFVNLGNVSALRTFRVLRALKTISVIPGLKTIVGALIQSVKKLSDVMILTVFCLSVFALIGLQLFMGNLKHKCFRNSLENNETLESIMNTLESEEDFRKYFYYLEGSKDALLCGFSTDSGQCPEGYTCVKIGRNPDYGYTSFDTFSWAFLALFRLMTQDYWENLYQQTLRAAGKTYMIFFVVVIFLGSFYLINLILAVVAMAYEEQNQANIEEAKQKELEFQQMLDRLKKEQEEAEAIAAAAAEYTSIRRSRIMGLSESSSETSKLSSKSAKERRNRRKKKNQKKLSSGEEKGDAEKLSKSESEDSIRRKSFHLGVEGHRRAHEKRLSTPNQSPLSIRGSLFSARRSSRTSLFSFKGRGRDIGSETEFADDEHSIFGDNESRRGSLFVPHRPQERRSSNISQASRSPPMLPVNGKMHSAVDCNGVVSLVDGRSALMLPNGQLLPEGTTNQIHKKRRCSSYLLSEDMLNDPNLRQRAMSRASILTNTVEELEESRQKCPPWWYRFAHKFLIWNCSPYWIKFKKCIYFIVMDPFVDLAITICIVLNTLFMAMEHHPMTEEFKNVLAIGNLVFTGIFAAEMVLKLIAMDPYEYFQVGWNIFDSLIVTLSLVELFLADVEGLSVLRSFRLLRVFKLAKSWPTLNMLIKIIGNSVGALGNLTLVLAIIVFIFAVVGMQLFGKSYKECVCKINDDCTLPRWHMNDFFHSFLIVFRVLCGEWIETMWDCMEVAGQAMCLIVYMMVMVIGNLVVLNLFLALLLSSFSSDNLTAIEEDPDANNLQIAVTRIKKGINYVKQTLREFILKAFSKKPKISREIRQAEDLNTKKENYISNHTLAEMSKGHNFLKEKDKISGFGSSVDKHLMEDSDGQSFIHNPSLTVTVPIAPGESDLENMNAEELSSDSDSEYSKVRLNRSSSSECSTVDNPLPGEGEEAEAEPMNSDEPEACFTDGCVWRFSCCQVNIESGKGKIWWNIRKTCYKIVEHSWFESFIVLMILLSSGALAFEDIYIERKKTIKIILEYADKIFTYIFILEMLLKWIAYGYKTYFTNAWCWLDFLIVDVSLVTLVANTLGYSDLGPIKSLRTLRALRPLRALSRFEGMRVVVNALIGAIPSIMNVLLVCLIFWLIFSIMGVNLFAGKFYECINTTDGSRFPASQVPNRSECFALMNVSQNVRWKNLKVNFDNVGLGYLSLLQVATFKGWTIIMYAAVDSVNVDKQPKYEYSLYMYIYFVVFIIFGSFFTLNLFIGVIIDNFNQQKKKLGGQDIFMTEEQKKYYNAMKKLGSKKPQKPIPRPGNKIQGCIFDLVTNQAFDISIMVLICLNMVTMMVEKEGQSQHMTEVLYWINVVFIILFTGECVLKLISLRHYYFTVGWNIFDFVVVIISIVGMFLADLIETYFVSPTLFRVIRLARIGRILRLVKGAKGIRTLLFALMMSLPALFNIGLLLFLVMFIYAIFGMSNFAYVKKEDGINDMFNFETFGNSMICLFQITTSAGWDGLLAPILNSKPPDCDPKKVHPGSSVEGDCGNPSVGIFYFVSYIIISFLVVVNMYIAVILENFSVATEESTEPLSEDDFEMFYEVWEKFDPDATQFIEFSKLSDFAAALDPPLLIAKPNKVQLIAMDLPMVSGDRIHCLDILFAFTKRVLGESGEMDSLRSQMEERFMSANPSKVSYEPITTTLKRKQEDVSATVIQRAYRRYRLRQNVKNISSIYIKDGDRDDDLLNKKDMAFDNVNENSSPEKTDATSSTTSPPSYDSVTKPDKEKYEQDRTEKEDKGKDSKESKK

This experiment concerns the target human Nav1.7 (Homo sapiens (Human), UniProt Q15858). Briefly: FLIPR sodium dye assay (CoroNa Green AM Na+ dye, primary fluorescence assay). It counts as cell-based. As to conditions: recombinant Nav1.7/HEK293 cells. As to the method:
In vitro assays were performed in a recombinant cell line expressing cDNA encoding the alpha subunit (Nav1.7, SCN9a, PN1, NE) of human Nav1.7 (Accession No. NM_002977). The cell line was provided by investigators at Yale University (Cummins et al, J. Neurosci. 18(23): 9607-9619 (1998)). For dominant selection of the Nav1.7-expressing clones, the expression plasmid co-expressed the neomycin resistance gene. The cell line was constructed in the human embryonic kidney cell line, HEK293, under the influence of the CMV […] promoter, and stable clones were selected using limiting dilution cloning and antibiotic selection using the neomycin analogue, G418. Recombinant beta and gamma subunits were not introduced into this cell line. Additional cell lines expressing recombinant Nav1.7 cloned from other species can also be used, alone or in combination with various beta subunits, gamma subunits or chaperones.
Unless otherwise noted, cell culture reagents were purchased from Mediatech of Herndon, Va. The recombinant Nav1.7/HEK293 cells were routinely cultured in growth medium consisting of Dulbecco's […] essential medium containing 10% fetal bovine serum (FBS, Hyclone, Thermo Fisher Scientific, Logan, Utah), 100 U/mL penicillin, 100 μg/mL streptomycin, 2-4 mM L-glutamine, and […] G418. For natural, non-recombinant cell lines, the selective antibiotic was omitted, and additional media formulations can be applied as needed.
The final buffer consisted of 20 mM Hepes, pH 7.3, 1.261 mM CaCl2, 0.493 mM MgCl2, 0.407 mM Mg(SO)4, 5.33 mM KCl, 0.441 mM KH2PO4, 137 mM NaCl, 0.336 mM Na2HPO4 and […] D-glucose (Hanks et al., Proc. Soc. Exp. Biol. Med. 71:196 (1949)), and the simple formulation was typically the basic buffer throughout the assay (i.e., all wash and addition steps).
The fluorescence indicator used in the primary fluorescence assay was the cell permeant version of CoroNa™ Green (Invitrogen, Molecular Probes, Eugene, Oreg.), a dye that emits light in the fluorescence range (Harootunian et al., J. Biol. Chem. 264(32):19458-19467 (1989)). The intensity of this emission, but not the wavelength range, is increased when the dye is exposed to Na^+ ions, which it can bind with partial selectivity. Cells expressing Nav1.7 or other sodium channels were loaded with the CoroNa™ Green dye immediately in advance of the fluorescence assay, and then, after agonist stimulation, the mobilization of Na^+ ions was detected as the Na^+ ions flowed from the extracellular fluid into the cytoplasm through the activated sodium channel pores. The dye was stored in the dark as a lyophilized powder, and then an aliquot was dissolved immediately before the cell loading procedure, according to the instructions of the manufacturer, to a stock concentration of 10 mM in DMSO. It was then diluted in the assay buffer to a 4× concentrated working solution, so that the final concentration of dye in the cell loading buffer was 5 μM.
In the fluorescence assays, two agonists were used in combination, namely 1) veratridine; and 2) the venom from the yellow scorpion, Leiurus quinquestriatus hebraeus. Veratridine is an alkaloid small molecule that facilitates the capture of channel openings by inhibiting inactivation, and the scorpion venom is a natural preparation that includes peptide toxins selective for different subsets of voltage-gated sodium channels. These scorpion toxins inhibit the fast inactivation of their cognate target channels. Stock solutions of the agonists were prepared to 40 mM in DMSO (veratridine) and 1 mg/mL in dH2O (scorpion venom), and then diluted to make a 4× or 2× stock (depending on the particular assay) in assay buffer, the final concentration being 100 μM (veratridine) and 10 μg/mL (scorpion venom). Both of the agonists were purchased from Sigma Aldrich, St. Louis, Mo.
Test compounds were dissolved in DMSO to yield 10 mM stock solutions. […]
Usually IC50 stands for the concentration that gives 50% inhibition. For `NC(=O)c1cccc(-c2ccc(Oc3ccc(C(F)(F)F)cc3C(C(=O)N3CCCC3)N3CCNC(=O)C3)cc2)n1` (centres unmarked) [compound 112, 6-(4-(2-(2-oxo-1-(3-oxopiperazin-1-yl)-2-(pyrrolidin-1-yl)ethyl)-4-(trifluoromethyl)phenoxy)phenyl) picolinamide], the IC50 is more than 20 µM.

For the compound `NC(=O)c1cccc(-c2ccc(Oc3ccc(C(F)(F)F)cc3C(=O)N3CCNC(=O)C3)cc2)n1` [compound 165, 6-(4-(2-(3-oxopiperazine-1-carbonyl)-4-(trifluoromethyl)-phenoxy)phenyl)picolinamide], the IC50 was more than 20 µM.

For `NC(=O)c1cccc(-c2ccc(Oc3ccc(C(F)(F)F)cc3C(O)C(=O)N3CCCC3)cc2)n1` (centres unmarked) [compound 158, 6-(4-(2-(1-hydroxy-2-oxo-2-(pyrrolidin-1-yl)ethyl)-4-(trifluoromethyl)phenoxy)phenyl) picolinamide], the IC50 was determined as 0.214 ± 0.029 µM.

Consider `CN(CCO)C(=O)c1cc(C(F)(F)F)ccc1Oc1ccc(-c2cccc(C(N)=O)n2)cc1` [compound 161, 6-(4-(2-((2-hydroxyethyl)-(methyl)carbamoyl)-4-(trifluoromethyl)phenoxy)phenyl) picolinamide], for which the IC50 was more than 20 µM.

In the case of `NC(=O)c1cccc(-c2ccc(Oc3ccc(F)cc3)cc2F)n1` [compound 99, 6-(2-fluoro-4-(4-fluorophenoxy)-phenyl)picolinamide], the IC50 came out at 0.55 ± 0.057 µM.

On to `NC(=O)c1cccc(-c2ccc(Oc3ccc(C(F)(F)F)cc3C(O)C[N+](=O)[O-])cc2)n1` (centres unmarked) [compound 63, 6-(4-(2-(1-hydroxy-2-nitroethyl)-4-(trifluoromethyl)phenoxy)-phenyl)picolinamide], for which the IC50 worked out at 0.337 ± 0.056 µM.

Take `OC[C@@H](O)c1cccc(-c2ccc(Oc3ccc(F)cc3C(O)C(F)(F)F)cc2)n1` (stereo partly drawn) [compound 156, (1S)-1-(6-(4-(4-fluoro-2-(2,2,2-trifluoro-1-hydroxyethyl)-phenoxy)phenyl)pyridin-2-yl)ethane-1,2-diol]: the concentration for half-maximal inhibition (IC50) came to 1.29 ± 0.182 µM.

For the compound `N#Cc1ccc(Oc2ccc(-c3cccc(C(N)=O)n3)cc2)c(-c2ccncc2)c1` [compound 15, 6-(4-(4-cyano-2-(pyridin-4-yl)phenoxy)phenyl)picolinamide], the IC50 was found to be 0.147 ± 0.016 µM.

Take `Cn1cccc1-c1cc(C#N)ccc1Oc1ccc(-c2cccc(C(N)=O)n2)cc1` [compound 17, 6-(4-(4-cyano-2-(1-methyl-1H-pyrrol-2-yl)phenoxy)phenyl)-picolinamide]: the IC50 was found to be 0.067 ± 0.019 µM.

Take `NC(=O)c1cccc(-c2ccc(Oc3ccc(F)cc3)cc2Cl)n1` [compound 86, 6-(2-chloro-4-(4-fluorophenoxy)-phenyl)picolinamide]: the IC50 was found to be 0.49 ± 0.041 µM.

Take `CCN(CC)S(=O)(=O)c1cc(C(F)(F)F)ccc1Oc1ccc(-c2cccc([C@H](O)CO)n2)cc1` [compound 113, (S)-2-(4-(6-(1,2-dihydroxyethyl)pyridin-2-yl)phenoxy)-N,N-diethyl-5-(trifluoromethyl)benzenesulfonamide]: the IC50 turned out to be 0.249 ± 0.016 µM.

As to `NC(=O)c1cccc(-c2ccc(Oc3ccc(C(F)(F)F)cc3CNc3nccs3)cc2)n1` [compound 114, 6-(4-(2-((thiazol-2-ylamino)methyl)-4-(trifluoromethyl)phenoxy)phenyl) picolinamide], the IC50 was 2.01 ± 0.456 µM.

Take `NC(=O)c1cccc(-c2ccc(Oc3ccc(C(F)(F)F)cc3C(=O)O)cc2)n1` [compound 159, 2-(4-(6-carbamoylpyridin-2-yl)phenoxy)-5-(trifluoro-methyl)benzoic acid]: the IC50 is 1.26 ± 0.135 µM.

As to `NC(=O)c1cccc(-c2ccc(Oc3ccc(F)cc3)c(COc3ccc(Cl)cc3I)c2)n1` [compound 94, 6-(3-((4-chloro-2-iodophenoxy)methyl)-4-(4-fluorophenoxy)phenyl) picolinamide], the IC50 is more than 20 µM.

As for `NC(=O)c1cccc(-c2ccc(Oc3ccc(C(F)(F)F)cc3C(=O)N3CCCC3)cc2)n1` [compound 160, 6-(4-(2-(pyrrolidine-1-carbonyl)-4-(trifluoromethyl)phenoxy)phenyl)picolinamide], the IC50 was found to be 2.85 ± 0.698 µM.

Consider `CN(C)C(C(N)=O)c1cc(C(F)(F)F)ccc1Oc1ccc(-c2cccc(C(N)=O)n2)cc1` (centres unmarked) [compound 84, 6-(4-(2-(2-amino-1-(dimethylamino)-2-oxoethyl)-4-(trifluoromethyl)phenoxy)phenyl) picolinamide], for which the IC50 was 10 to 20 µM.

Take `N#Cc1ccc(Oc2ccc(-c3cccc(C(N)=O)n3)cc2)c(-c2ccc(N)cc2)c1` [compound 18, 6-(4-((4′-amino-5-cyano-[1,1′-biphenyl]-2-yl)oxy)phenyl)-picolinamide]: the IC50 is 0.426 ± 0.084 µM.

As to `Cn1nccc1-c1cc(C#N)ccc1Oc1ccc(-c2cccc(C(N)=O)n2)cc1` [compound 22, 6-(4-(4-cyano-2-(1-methyl-1H-pyrazol-5-yl)phenoxy)phenyl) picolinamide], the IC50 was determined as 0.285 ± 0.009 µM.

As to `CCN(CCO)Cc1cc(C(F)(F)F)ccc1Oc1ccc(-c2cccc(C(N)=O)n2)cc1` [compound 119, 6-(4-(2-((ethyl(2-hydroxyethyl)amino)methyl)-4-(trifluoromethyl)phenoxy)phenyl) picolinamide], the IC50 worked out at 0.59 ± 0.092 µM.

On to `CN(c1ccccc1)c1cc(-c2cccc(C(N)=O)n2)ccc1Oc1ccc(F)cc1` [compound 92, 6-(4-(4-fluorophenoxy)-3-(methyl(phenyl)amino)phenyl) picolinamide], for which the IC50 was more than 20 µM.

For `COc1ncccc1-c1cc(C#N)ccc1Oc1ccc(-c2cccc(C(N)=O)n2)cc1` [compound 24, 6-(4-(4-cyano-2-(2-methoxypyridin-3-yl)phenoxy)phenyl)picolinamide], the IC50 was found to be 0.152 ± 0.031 µM.

Turning to `NC(=O)c1cccc(-c2ccc(Oc3ccc(C(F)(F)F)cc3C(O)CN3CCNC(=O)C3)cc2)n1` (centres unmarked) [compound 79, 6-(4-(2-(1-hydroxy-2-(3-oxopiperazin-1-yl)ethyl)-4-(trifluoromethyl)phenoxy)phenyl) picolinamide], the IC50 was more than 20 µM.

Consider `NC(=O)c1cccc(-c2ccc(Oc3ccc(F)cc3)c(CN3CCCC3)c2)n1` [compound 97, 6-(4-(4-fluorophenoxy)-3-(pyrrolidin-1-ylmethyl)phenyl)-picolinamide], for which the IC50 is 4.24 ± 0.919 µM.

Take `NC(=O)c1cccc(-c2ccc(Oc3ccc(C(F)(F)F)cc3CN3CCCCC3)cc2)n1` [compound 49, 6-(4-(2-(piperidin-1-ylmethyl)-4-(trifluoromethyl)phenoxy)phenyl) picolinamide]: the IC50 was 0.096 ± 0.01 µM.

On to `NC(=O)c1cccc(-c2ccc(Oc3ccc(F)cc3)c(-c3ccc(Cl)cc3)c2)n1` [compound 100, 6-(4′-chloro-6-(4-fluorophenoxy)-[1,1′-biphenyl]-3-yl)picolinamide], for which the IC50 amounted to 0.276 ± 0.063 µM.

In the case of `N#Cc1ccc(OCc2cc(-c3cccc(C(N)=O)n3)ccc2Oc2ccc(F)cc2)cc1` [compound 105, 6-(3-((4-cyanophenoxy)methyl)-4-(4-fluorophenoxy)phenyl)picolinamide], the IC50 came to 0.362 ± 0.095 µM.

For the compound `N#Cc1ccc(Oc2ccc(-c3cccc(C(N)=O)n3)cc2)cc1-c1ccncc1` [compound 26, 6-(4-(4-cyano-3-(pyridin-4-yl)phenoxy)phenyl)picolinamide], the IC50 was found to be 0.054 ± 0.005 µM.

As to `CN(C)CCNCc1cc(C(F)(F)F)ccc1Oc1ccc(-c2cccc(C(N)=O)n2)cc1` [compound 31, 6-(4-(2-(((2-(dimethylamino)ethyl)amino)methyl)-4-(trifluoromethyl)phenoxy)phenyl) picolinamide], the IC50 came out at 2.14 ± 0.432 µM.

On to `NC(=O)c1cccc(-c2ccc(Oc3ccc(F)cc3)c(Cl)c2)n1` [compound 87, 6-(3-chloro-4-(4-fluorophenoxy)-phenyl)picolinamide], for which the IC50 came out at 0.128 ± 0.03 µM.
